Measurements: patent US9707250B2, “Hydrophobically modified antisense oligonucleotides comprising a triple alkyl chain” (INSTITUT NATIONAL DE LA SANTE ET DE LA RECHERCHE MEDICALE …, priority 2013, dated 2017)
Oligonucleotides are written 5' to 3', each unit as a sugar letter and its base; * is a phosphorothioate linkage, no mark a phosphodiester; rarer units and linkages stand in square brackets, end groups in braces. Plain capitals give the bases only. {(C18)3CCH2} = lipid of three C18 alkyl chains on a quaternary carbon, linked through CH2-O-phosphodiester; {3LON} = triple hydrocarbon-chain lipid moiety added by triple chain phosphoramidite 4; d = 2'-deoxy (DNA)

Key:
[1] = Aggregation behavior of LONs in aqueous media; type: physicochemical
Experimental: As true surfactants, LONs can self assemble in aqueous media. […] The latter could be HPLC-purified and characterized by MS. […] […] Aqueous samples containing LONs were studied under different conditions including pure water and aqueous suspensions of varying ionic strength and temperature (25-45° C.). All the LONs investigated, namely ^3LON-T15, yielded small spherical objects ranging from approximately 8 to 20 nm in diameter as characterized by DLS, transmission and scanning electronic microscopies (TEM and SEM). […] The micellar architecture of these assemblies can be explained based upon the molecular dimensions of 15 nucleobase-long LONs. Indeed, such molecules are flexible, with cone shape structure and dimensions compatible with the self-aggregation into spherical micelles.

[2] = Size of LON aggregates by DLS, TEM and SEM; type: physicochemical
Experimental: Transmission Electron Microscopy (TEM). Samples were imaged by negative staining microscopy with a Hitachi H 7650 electron microscope. Samples containing LONs (concentrations and mean sizes are indicated in TEM images) were transferred to a carbon-coated copper grid for ten minutes. The sample was then dried and stained with 2.5% (W/W) of uranyl acetate in water for five minutes.
Scanning Electron Microscopy (SEM). Samples were examined at an accelerating voltage of 10 kV. Typically […] of sample containing the LON aggregates were dried spread on polished stainless steel platelets and then coated with a 6-10 nm layer of gold-palladium alloy under vacuum with a sputter Coater Balzers SCD050. Observations were made with a Philips XL30S FEG instrument.
(§1) As true surfactants, LONs can self assemble in aqueous media. […] The latter could be HPLC-purified and characterized by MS. […] Consequently, dynamic light scattering, transmission electron microscopy and SEM experiments were carried out with the solutions of one purified LON only. Aqueous samples containing LONs were studied under different conditions including pure water and aqueous suspensions of varying ionic strength and temperature (25-45° C.). All the LONs investigated, namely ^3LON-T15, yielded small spherical objects ranging from approximately 8 to 20 nm in diameter as characterized by DLS, transmission and scanning electronic microscopies (TEM and SEM). […] The micellar architecture of these assemblies can be explained based upon the molecular dimensions of 15 nucleobase-long LONs. Indeed, such molecules are flexible, with cone shape structure and dimensions compatible with the self-aggregation into spherical micelles.

PC-3 cells = assay: MTT assay, in vitro growth inhibitory effects; type: cell-based, human; conditions: transfection in the absence of Oligofectamine
Experimental: The CR prostate cancer cell line PC-3 was purchased from the American Type Culture Collection (Rockville, Md., USA). The cells were maintained in Dulbecco's Modified Eagle's Medium (Invitrogen, Cergy Pontoise, France), supplemented with 10% fetal calf serum (FCS).
(§2) Prostatic cell line were transfected with LASO#15 at various concentrations (from 30 nM to 100 nM), in OptiMEM® medium (Invitrogen), without serum and in the absence of Oligofectamine™ transfection reagent (Invitrogen).
(§3) Serum was added 4 hours after transfection. Two or three days after transfection, the level of TCTP protein expression and GAPDH (used as housekeeping gene) were determined by performing western blotting, and the in vitro growth inhibitory effects of LASO#15 on PC-3 cells were assessed using an MTT assay.
The MTT assay was performed as described previously (Rocchi et al., 2004, Cancer Res. 64:6595-602).

TCTP protein = TCTP protein expression by western blot after transfection without Oligofectamine; type: cell-based, human; conditions: PC-3 prostatic cells; absence of Oligofectamine; 30 nM to 100 nM, in particular 100 nM; two or three days after transfection; LASO#Scr negative control
Experimental: Lipid-conjugated oligonucleotide, LASO#15 was tested on TCTP protein expression using western-blot (LASO#Scr was used as negative control).
as §2, §3
Western Blot analysis was performed as described previously (Rocchi et al., 2004, Cancer Res. 64:6595-602) with 1:2000 rabbit TCTP polyclonal antibody (Abcam Inc., Cambridge, UK). Loading levels were normalized using 1:5000 rabbit anti-glyceraldehyde-3-phosphate dehydrogenase polyclonal (Abcam Inc.).

[3] = Solubility of LONs in water; type: physicochemical; conditions: adenosine-containing versus thymidine LON
Experimental: At this point, the crude ^3LON-T15 and ^3LON-A15 behave quite differently. […] The LON eluted after ca. 42 min under these conditions. Fractions containing the LON were pooled and evaporated to dryness. The LON was dissolved in water and dried again two times to remove all residual traces of buffer. Yield of final ^3LON-T15 was excellent (40%).
as §1

^3LON-T15: Triple chain polyT 15mer; dT15 (SEQ ID NO: 33) coupled at its 5′ end with triple chain phosphoramidite 4
aggregation on storage ([1]; after storage at −20° C.): slow aggregation tendency | effect of temperature on aggregate size ([2]; 25-45° C. range): poorly affected by temperature | sensitivity of aggregate size to ionic strength ([2]; DLS in water): poorly sensitive to ionic strength | change of micelle core on hybridization ([2]; DLS, hybridization of the complementary dA15, not observed with ncDNA): contraction of the core micelle is observed

(C18)3CCH2—O—P(═O)(—O[−1])-O-5′-AACTTGTTTCCTGCAGGTGA-3′-OH (antisense {(C18)3CCH2}-dAdAdCdTdTdGdTdTdTdCdCdTdGdCdAdGdGdTdGdA) [LASO#15]
growth of PC-3 cells (MTT assay) (PC-3 cells): inhibiting the growth of the PC-3 cells | TCTP protein expression (western blot) (TCTP protein): specific inhibition of TCTP protein

^3LON-A15: Triple chain polyA 15mer; dA15 (SEQ ID NO: 32) coupled at its 5′ end with triple chain phosphoramidite 4 (DNA AAAAAAAAAAAAAAA; DNA, 5' {3LON}, backbone not given here)
aggregation after cleavage and deprotection ([1]; crude LON): immediate and irreversible aggregation | solubility in water (relative) [3]: less soluble in water than their thymidine counterparts
